Counter-ions that a name gives are not always drawn.
biological target: T1, NaV1.7 (Homo sapiens, UniProt Q15858); assay: Manual patch clamp, external block of NaV1.7 current; assay type: cell-based; details: % inhibition at 10 μM test concentration, compound in external solution, HEK293 cells
T1 construct: expressed in transfected cells; host or cells: HEK293 (tetracycline-inducible)
Procedure: Representative compounds of the invention were synthesized according to the described methods and tested for the ability to inhibit voltage-gated sodium channels.
NaV1.7 was expressed in HEK293 cells upon induction with tetracycline. Cells were cultured in DMEM containing 10% dialyzed Fetal Bovine Serum (VWR, Radnor, Pa.), 1% Glutamax (VWR, Radnor, Pa.), 1% Penicillin-Streptomycin (VWR, Radnor, Pa.), 100 mg/L Hygromycin (Thermo Fisher Scientific, Waltham, Mass. and 5 mg/L Blasticidin (Alfa Aesar, Haverhill, Mass.). Cells were grown and maintained at 37° C. in a humidified environment containing 10% CO2 in air. Cells were detached from the culture flask for passage and harvested using 0.05% Trypsin-EDTA (Thermo Fisher Scientific, Waltham, Mass.). To induce NaV1.7, cells were induced with tetracycline (0.1-1 μg/mL, IBI Scientific, Peosta, Iowa) the day before recording and plated onto 24-well plates. Cells were washed with DPBS (VWR, Radnor, Pa.), trypsinized and then triturated five times in 10 mL of growth media to break apart cell aggregates. For one 24-well plate, 2 mL of cell suspension was mixed with 23 mL of fresh growth media and 0.1-1 μg/mL tetracycline added. 1 ml of mixed media with cells was then added to each well of a 24-well plate, with a 12 mm coverslip already placed in the bottom of the well. Cells were then incubated in 37° C. and 10% CO2 overnight.
The intracellular solution contained the following (in mM) CsCl 135, NaCl 10, EGTA 10, HEPES 10, MgCl2 2, adjusted to pH 7.2 with CsOH. The external solution was a normal Ringer solution containing (in mM) NaCl 155, HEPES 10, glucose 10, KCl 3.5, CaCl2 1.5, MgCl2 1 adjusted to pH 7.4 with NaOH. CsCl is from Alfa Aesar, Haverhill, Mass. All other chemicals are from Sigma-Aldrich, St. Louis, Mo. In order to test the degree of internal block by test compounds the compounds were dissolved in internal solution at the indicated test concentration. […] In order to test the degree of external block by test compounds the compounds were dissolved in external solution at the indicated test concentration.
18-24 hours after cells were induced with tetracycline, coverslips were placed into a chamber filled with Normal Ringer solution at room temperature and the chamber placed on a microscope. Pipettes were pulled from borosilicate glass on a P97 puller (Sutter Instrument, Novato, Calif.) and polished with a MF-830 Microforge (Narishige International USA, Inc., Amityville, N.Y.) to have a resistance of 1.5-2.5 MΩ when filled with CsCl internal solution at room temperature. Healthy cells (those that are round and translucent with no visible blemishes) were chosen for seal formation. A seal was formed between the pipette and the cell, and a brief pulse of suction was used to “break in” and establish the whole-cell configuration. The membrane potential was held at −100 mV before the voltage protocol began. Only cells with series resistance between 1.5-5 MΩ were retained for analysis. The voltage protocol was as follows: Cells were held at −100 mV for 12 ms followed by a hyperpolarizing step to −105 mV for 12 ms to monitor the leak. Cells were then stepped back to −100 mV for 40 ms. Cells were then depolarized to −20 mV for 10 ms and then returned to −100 mV for 26 ms.
Once the recording was started, the voltage protocol was run at 30 second intervals for 5 minutes to get a stable baseline. This is followed by 5 Hz stimulation of the same voltage protocol run until the end of experiment. […] The test compound is added for 5 minutes before washing out with normal Ringer's solution. Currents were recorded using PatchMaster software with Heka EPC10 (HEKA Electronics, Lambrecht, Germany). Only cells with inward current amplitudes at −20 mV between 400 pA and 4 nA were accepted. In addition, cells having leak currents greater than 10% of their current amplitudes were discarded. […]

T1 sequence (Q15858 whole entry): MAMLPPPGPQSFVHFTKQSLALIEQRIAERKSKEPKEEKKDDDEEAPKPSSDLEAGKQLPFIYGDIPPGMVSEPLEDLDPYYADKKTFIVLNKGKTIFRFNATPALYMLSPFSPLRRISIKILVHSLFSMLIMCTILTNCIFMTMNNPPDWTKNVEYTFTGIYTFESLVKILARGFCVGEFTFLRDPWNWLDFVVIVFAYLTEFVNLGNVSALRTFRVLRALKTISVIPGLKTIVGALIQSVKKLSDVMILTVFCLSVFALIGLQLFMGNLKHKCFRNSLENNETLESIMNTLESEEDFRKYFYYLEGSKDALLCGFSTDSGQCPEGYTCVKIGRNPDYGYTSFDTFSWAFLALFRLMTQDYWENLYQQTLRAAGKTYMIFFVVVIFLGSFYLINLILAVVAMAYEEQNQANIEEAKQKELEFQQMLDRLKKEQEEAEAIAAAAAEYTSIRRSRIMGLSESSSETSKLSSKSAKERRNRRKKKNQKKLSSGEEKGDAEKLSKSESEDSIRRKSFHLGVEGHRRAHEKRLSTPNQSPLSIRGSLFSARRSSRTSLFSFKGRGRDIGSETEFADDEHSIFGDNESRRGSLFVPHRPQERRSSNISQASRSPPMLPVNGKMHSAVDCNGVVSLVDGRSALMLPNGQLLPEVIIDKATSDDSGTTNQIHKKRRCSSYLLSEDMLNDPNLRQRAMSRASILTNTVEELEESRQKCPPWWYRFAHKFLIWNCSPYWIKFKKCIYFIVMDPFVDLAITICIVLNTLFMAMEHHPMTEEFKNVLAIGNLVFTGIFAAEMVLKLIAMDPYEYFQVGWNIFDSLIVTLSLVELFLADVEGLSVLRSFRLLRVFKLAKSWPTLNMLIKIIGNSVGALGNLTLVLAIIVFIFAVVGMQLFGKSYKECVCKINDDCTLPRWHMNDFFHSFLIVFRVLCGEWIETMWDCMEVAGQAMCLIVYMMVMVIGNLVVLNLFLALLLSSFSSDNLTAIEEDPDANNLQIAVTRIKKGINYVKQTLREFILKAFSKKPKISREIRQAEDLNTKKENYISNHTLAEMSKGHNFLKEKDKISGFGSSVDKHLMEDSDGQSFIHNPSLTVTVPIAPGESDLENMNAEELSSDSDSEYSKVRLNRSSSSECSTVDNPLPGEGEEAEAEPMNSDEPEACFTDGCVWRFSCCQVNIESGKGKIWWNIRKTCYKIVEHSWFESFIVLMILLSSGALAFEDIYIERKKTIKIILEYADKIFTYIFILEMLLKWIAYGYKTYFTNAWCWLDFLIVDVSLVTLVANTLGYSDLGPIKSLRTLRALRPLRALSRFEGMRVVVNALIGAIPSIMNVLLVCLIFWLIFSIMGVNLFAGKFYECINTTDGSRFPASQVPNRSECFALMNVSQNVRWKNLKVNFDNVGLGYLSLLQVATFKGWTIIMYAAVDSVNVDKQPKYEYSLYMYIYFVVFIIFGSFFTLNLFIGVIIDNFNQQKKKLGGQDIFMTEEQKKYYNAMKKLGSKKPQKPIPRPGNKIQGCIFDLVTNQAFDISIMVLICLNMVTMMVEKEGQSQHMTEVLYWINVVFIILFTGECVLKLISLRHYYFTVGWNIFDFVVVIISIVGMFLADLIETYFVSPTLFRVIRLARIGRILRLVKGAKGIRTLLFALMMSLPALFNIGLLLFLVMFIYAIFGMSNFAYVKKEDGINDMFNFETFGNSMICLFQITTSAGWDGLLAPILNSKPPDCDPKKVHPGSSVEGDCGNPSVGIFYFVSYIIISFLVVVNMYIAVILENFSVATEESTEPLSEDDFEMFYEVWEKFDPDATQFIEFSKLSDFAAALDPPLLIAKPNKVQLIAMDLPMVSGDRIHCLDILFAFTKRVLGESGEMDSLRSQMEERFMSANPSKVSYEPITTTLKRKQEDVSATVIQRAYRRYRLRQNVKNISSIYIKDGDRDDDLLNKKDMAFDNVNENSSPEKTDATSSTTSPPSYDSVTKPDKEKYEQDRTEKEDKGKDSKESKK

Molecule | Nav1.7 Extracellular Inhibition
1-benzyl-1-(2-((2-(dimethylcarbamoyl)-6-methylphenyl) amino)-2-oxoethyl) azepan-1-ium bromide [Compound 81A] | + (“+” (<40%))

same assay, conditions: % inhibition at 10 μM test concentration, compound in external solution, HEK293 cells, read-out: Nav1.7 Extracellular Inhibition

inhibition at 10 µM [%] | Molecule
< 40 | Cc1cccc(C)c1N(C)C(=O)C[N+]1(Cc2ccccc2)CCCCCC1 [Compound 38A, 1-benzyl-1-(2-((2,6-dimethylphenyl) (methyl)amino)-2-oxoethyl) azepan-1-ium formate]
40 to 70 | Cc1cccc(-c2ccccc2)c1NC(=O)C[N+]1(Cc2ccccc2)CCCCCC1.[Br-] [Compound 76A]
< 40 | CCC(=O)Oc1cccc(C)c1NC(=O)C[N+]1(Cc2ccccc2)CCCCCC1.[Br-] [Compound 80A, 1-benzyl-1-(2-((2-methyl-6-(propionyloxy)phenyl)amino)-2-oxoethyl) azepan-1-ium bromide]
< 40 | Cc1cccc(F)c1NC(=O)C[N+]1(Cc2ccccc2)CCCCCC1.[Br-] [Compound 69A, 1-benzyl-1-(2-((2-fluoro-6-methylphenyl)amino)-2-oxoethyl)azepan-1-ium bromide]
< 40 | COC(=O)c1cccc(C[N+]2(CC(=O)Nc3c(C)cccc3C)CCCCC2)c1.[Br-] [Compound 35A, 1-(2-((2,6-dimethylphenyl)amino)-2-oxoethyl)-1-(3-(methoxycarbonyl)benzyl) piperidin-1-ium bromide]

More lines, now with the values behind:

Molecule | inhibition at 10 µM [%]
Cc1cccc(C)c1NC(=O)C[N+]1(Cc2ccccc2)CCCC(C(N)=O)C1.[Br-] (mixture of isomers) [Compound 53A, 1-benzyl-3-carbamoyl-1-(2-((2,6-dimethylphenyl)amino)-2-oxoethyl) piperidin-1-ium bromide] | < 40
Cc1cccc(C)c1NC(=O)C[N+]1(Cc2ccccc2)CCCC(C(=O)OC(C)C)C1 (mixture of isomers) [Compound 46A, 1-benzyl-1-(2-((2,6-dimethylphenyl)amino)-2-oxoethyl)-3-(isopropoxycarbonyl) piperidin-1-ium trifluoroacetate salt] | 40 to 70
Cc1cccc(C)c1N1CCC([N+]2(Cc3ccccc3)CCCCCCC2)C1=O.[Br-] (stereo not shown) [Compound 90A] | < 40
COC(=O)C1CC[N+](CC(=O)Nc2c(C)cccc2C)(Cc2ccccc2)CC1.[Br-] (stereo not shown) [Compound 44A, 1-benzyl-1-(2-((2,6-dimethylphenyl)amino)-2-oxoethyl)-4-(methoxycarbonyl) piperidin-1-ium bromide] | < 40
[2H]c1c([2H])c([2H])c(C[N+]2(CC(=O)Nc3c(C)cccc3C)CCCCCC2)c([2H])c1[2H].[Cl-] [Compound 33A, 1-(2-((2,6-dimethylphenyl)amino)-2-oxoethyl)-1-((phenyl-d5)methyl) azepan-1-ium chloride] | 40 to 70
CC[N+](CC)(CCCc1ccccc1)CC(=O)Nc1c(C)cccc1C.[Br-] [Compound 86A, N-(2-((2,6-dimethylphenyl)amino)-2-oxoethyl)-N, N-diethyl-3-phenylpropan-1-aminium bromide] | < 40
CCCOC(=O)C1CCC[N+](CC(=O)Nc2c(C)cccc2C)(Cc2ccccc2)C1.[Br-] (stereo not shown) [Compound 47A, 1-benzyl-1-(2-((2,6-dimethylphenyl)amino)-2-oxoethyl)-3-(propoxycarbonyl) piperidin-1-ium bromide] | 40 to 70

From US11603355B2, “Charged ion channel blockers and methods for use” (Nocion Therapeutics, Inc., priority 2019, dated 2023)
